Laboratory results reported in BindingDB's records for doi:10.1124/jpet.104.066761 (National Institutes of Health, 2004).
Square brackets hold non-standard residues; d marks the D form. Peptide text beside a SMILES is read from it. Nle = CCCC[C@H](N)C(=O)O; βAla = NCCC(=O)O

How the values were obtained:
[1] = target: Gastrin-releasing peptide receptor (Homo sapiens) (UniProt P30550)
[2] = target: T1, Bombesin receptor subtype-3 (Homo sapiens, UniProt P32247)
T1 sequence (P32247 whole entry): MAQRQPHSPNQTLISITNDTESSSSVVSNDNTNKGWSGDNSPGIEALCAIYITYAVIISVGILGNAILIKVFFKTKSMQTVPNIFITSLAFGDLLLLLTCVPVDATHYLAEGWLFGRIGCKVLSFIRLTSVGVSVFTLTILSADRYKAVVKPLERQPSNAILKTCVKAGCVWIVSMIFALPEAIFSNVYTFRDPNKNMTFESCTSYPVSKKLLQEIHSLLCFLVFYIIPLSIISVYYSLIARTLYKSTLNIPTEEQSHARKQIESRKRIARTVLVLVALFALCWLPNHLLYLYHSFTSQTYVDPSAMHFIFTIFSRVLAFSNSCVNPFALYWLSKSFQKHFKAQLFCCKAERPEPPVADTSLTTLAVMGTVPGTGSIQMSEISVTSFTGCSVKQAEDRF

[3] = target: Neuromedin-B receptor (Homo sapiens, UniProt P28336)
[4] = target: Gastrin-releasing peptide receptor (Homo sapiens) (UniProt P30550); remark: listed apart in the source

Chain of Gastrin-releasing peptide receptor (Homo sapiens) (P30550 whole entry, looked up): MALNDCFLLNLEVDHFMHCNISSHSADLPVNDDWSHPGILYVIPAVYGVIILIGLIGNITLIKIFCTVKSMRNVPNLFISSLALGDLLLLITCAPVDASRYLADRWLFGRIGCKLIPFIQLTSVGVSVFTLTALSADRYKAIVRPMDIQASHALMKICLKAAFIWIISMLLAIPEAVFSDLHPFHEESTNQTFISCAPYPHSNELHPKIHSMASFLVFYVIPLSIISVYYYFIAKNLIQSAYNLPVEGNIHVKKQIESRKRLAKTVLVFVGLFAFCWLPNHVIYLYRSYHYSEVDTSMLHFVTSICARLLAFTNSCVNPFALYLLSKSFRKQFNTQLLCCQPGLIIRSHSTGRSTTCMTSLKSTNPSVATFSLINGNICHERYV
Chain of Neuromedin-B receptor (P28336 whole entry): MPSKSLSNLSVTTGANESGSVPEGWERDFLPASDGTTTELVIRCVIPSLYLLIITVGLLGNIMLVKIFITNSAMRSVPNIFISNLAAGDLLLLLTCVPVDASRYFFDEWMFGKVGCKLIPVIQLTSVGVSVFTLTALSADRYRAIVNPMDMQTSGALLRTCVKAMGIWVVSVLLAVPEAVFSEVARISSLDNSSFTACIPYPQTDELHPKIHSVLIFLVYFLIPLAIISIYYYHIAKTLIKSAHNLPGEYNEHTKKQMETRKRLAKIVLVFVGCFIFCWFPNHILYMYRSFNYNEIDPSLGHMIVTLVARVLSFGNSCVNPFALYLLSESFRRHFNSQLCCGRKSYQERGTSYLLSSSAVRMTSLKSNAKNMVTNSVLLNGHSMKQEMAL

Compound | Ki [1] [µM] | Ki [2] [µM] | Ki [3] [µM] | Ki [4] [µM]
CCCC[C@H](NC(=O)[C@H](Cc1ccccc1)NC(=O)[C@H](Cc1cnc[nH]1)NC(=O)C[C@H](NC(=O)[C@@H](NC(=O)[C@H](C)NC(=O)[C@H](Cc1c[nH]c2ccccc12)NC(=O)[C@H](CCC(N)=O)NC(=O)[C@H](N)Cc1ccc(O)cc1)C(C)C)c1ccccc1)C(N)=O [CAS_0] | 0.11 | – | – | –
CC(C)[C@H](NC(=O)[C@H](C)NC(=O)[C@H](Cc1c[nH]c2ccccc12)NC(=O)[C@H](CCC(N)=O)NC(=O)[C@H](N)Cc1ccc(O)cc1)C(=O)NCCC(=O)N[C@@H](Cc1cnc[nH]1)C(=O)N[C@@H](Cc1ccccc1)C(=O)NC[C@H](N)C(N)=O [NSC_0] | 0.085 | 2.4 | > 10 | –
CCCC[C@H](NC(=O)[C@H](Cc1ccccc1)NC(=O)[C@H](Cc1c[nH]cn1)NC(=O)C[C@@H](NC(=O)[C@@H](NC(=O)[C@H](C)NC(=O)[C@H](Cc1c[nH]c2ccccc12)NC(=O)[C@H](CCC(N)=O)NC(=O)[C@H](N)Cc1ccc(O)cc1)C(C)C)c1ccc(Cl)cc1)C(N)=O [NSC_0] | 1.86 | 0.0082 | 7.2 | –
CCCC[C@H](NC(=O)[C@H](Cc1ccccc1)NC(=O)[C@H](Cc1cnc[nH]1)NC(=O)C[C@@H](NC(=O)[C@@H](NC(=O)[C@H](C)NC(=O)[C@H](Cc1c[nH]c2ccccc12)NC(=O)[C@H](CCC(N)=O)NC(=O)[C@H](N)Cc1ccc(O)cc1)C(C)C)c1ccccc1Cl)C(N)=O [NSC_0] | 0.229 | 0.024 | 6.92 | –
CCCC[C@H](NC(=O)[C@H](Cc1ccccc1)NC(=O)[C@H](Cc1cnc[nH]1)NC(=O)C[C@H](NC(=O)[C@@H](NC(=O)[C@H](C)NC(=O)[C@H](Cc1c[nH]c2ccccc12)NC(=O)[C@H](CCC(N)=O)NC(=O)[C@H](N)Cc1ccc(O)cc1)C(C)C)c1ccc(Cl)cc1)C(N)=O [NSC_0] | 0.741 | 0.776 | 1.95 | –
CCCC[C@H](NC(=O)[C@H](Cc1ccccc1)NC(=O)[C@H](Cc1cnc[nH]1)NC(=O)[C@@H](N)CNC(=O)[C@@H](NC(=O)[C@H](C)NC(=O)[C@H](Cc1c[nH]c2ccccc12)NC(=O)[C@H](CCC(N)=O)NC(=O)[C@H](N)Cc1ccc(O)cc1)C(C)C)C(N)=O [NSC_0] | 0.001 | 0.0023 | 0.043 | –
CCCC[C@H](NC(=O)[C@H](Cc1ccccc1)NC(=O)[C@H](Cc1cnc[nH]1)NC(=O)[C@H](CNC(=O)[C@@H](NC(=O)[C@H](C)NC(=O)[C@H](Cc1c[nH]c2ccccc12)NC(=O)[C@H](CCC(N)=O)NC(=O)[C@H](N)Cc1ccc(O)cc1)C(C)C)NC(C)=O)C(N)=O [NSC_0] | 0.0017 | 0.0158 | 0.089 | –
CCCC[C@H](NC(=O)[C@H](Cc1ccccc1)NC(=O)[C@H](Cc1cnc[nH]1)NC(=O)CCNC(=O)[C@@H](NC(=O)[C@H](C)NC(=O)[C@H](Cc1c[nH]c2ccccc12)NC(=O)[C@H](CCC(N)=O)NC(=O)[C@H](N)Cc1ccc(O)cc1)C(C)C)C(N)=O [NSC_0] (H-[dY]QWAV[βAla]HF[Nle]-NH2) | – | 0.00082 | 0.0059 | –

Now from value to compound:

Ki [1] [µM] | Ki [2] [µM] | Ki [3] [µM] | Ki [4] [µM] | Compound
– | > 10 | 0.00055 | – | CSCC[C@H](NC(=O)[C@H](Cc1ccccc1)NC(=O)[C@H](Cc1cnc[nH]1)NC(=O)CNC(=O)[C@@H](NC(=O)[C@H](C)NC(=O)[C@H](Cc1c[nH]c2ccccc12)NC(=O)[C@H](CC(C)C)NC(=O)[C@H](CC(N)=O)NC(=O)CN)[C@@H](C)O)C(N)=O [NMB]
0.151 | 0.0028 | 2.4 | – | CCCC[C@H](NC(=O)[C@H](Cc1ccccc1)NC(=O)[C@H](Cc1c[nH]cn1)NC(=O)C[C@@H](NC(=O)[C@@H](NC(=O)[C@H](C)NC(=O)[C@H](Cc1c[nH]c2ccccc12)NC(=O)[C@H](CCC(N)=O)NC(=O)[C@H](N)Cc1ccc(O)cc1)C(C)C)c1ccccc1)C(N)=O [NSC_0]
0.11 | 0.0158 | 0.831 | – | CCCC[C@H](NC(=O)[C@H](Cc1ccccc1)NC(=O)[C@H](Cc1cnc[nH]1)NC(=O)C[C@@H](NC(=O)[C@@H](NC(=O)[C@H](C)NC(=O)[C@H](Cc1c[nH]c2ccccc12)NC(=O)[C@H](CCC(N)=O)NC(=O)[C@H](N)Cc1ccc(O)cc1)C(C)C)c1cccc(Cl)c1)C(N)=O [NSC_0]
– | 0.708 | 0.646 | 0.397 | CCCC[C@H](NC(=O)[C@H](Cc1ccccc1)NC(=O)[C@H](Cc1cnc[nH]1)NC(=O)C[C@H](NC(=O)[C@@H](NC(=O)[C@H](C)NC(=O)[C@H](Cc1c[nH]c2ccccc12)NC(=O)[C@H](CCC(N)=O)NC(=O)[C@H](N)Cc1ccc(O)cc1)C(C)C)C(=O)NCc1ccccc1)C(N)=O [NSC_0]
0.396 | 0.49 | 0.427 | – | CCCC[C@H](NC(=O)[C@H](Cc1ccccc1)NC(=O)[C@H](Cc1cnc[nH]1)NC(=O)C[C@H](NC(=O)[C@@H](NC(=O)[C@H](C)NC(=O)[C@H](Cc1c[nH]c2ccccc12)NC(=O)[C@H](CCC(N)=O)NC(=O)[C@H](N)Cc1ccc(O)cc1)C(C)C)C(=O)O)C(N)=O [NSC_0]
2.51 | 0.107 | > 10 | – | CCCC[C@H](NC(=O)[C@H](Cc1ccccc1)NC(=O)[C@H](Cc1cnc[nH]1)NC(=O)C[C@H](NC(=O)[C@@H](NC(=O)[C@H](C)NC(=O)[C@H](Cc1c[nH]c2ccccc12)NC(=O)[C@H](CCC(N)=O)NC(=O)[C@H](N)Cc1ccc(O)cc1)C(C)C)c1cccc(Cl)c1)C(N)=O [NSC_0]
0.398 | 0.085 | 5.89 | – | CCCC[C@H](NC(=O)[C@H](Cc1ccccc1)NC(=O)[C@H](Cc1cnc[nH]1)NC(=O)C[C@H](NC(=O)[C@@H](NC(=O)[C@H](C)NC(=O)[C@H](Cc1c[nH]c2ccccc12)NC(=O)[C@H](CCC(N)=O)NC(=O)[C@H](N)Cc1ccc(O)cc1)C(C)C)c1ccccc1Cl)C(N)=O [NSC_0]
0.0031 | 0.0123 | 0.055 | – | CCCC[C@H](NC(=O)[C@H](Cc1ccccc1)NC(=O)[C@H](Cc1cnc[nH]1)NC(=O)[C@H](CNC(=O)[C@@H](NC(=O)[C@H](C)NC(=O)[C@H](Cc1c[nH]c2ccccc12)NC(=O)[C@H](CCC(N)=O)NC(=O)[C@H](N)Cc1ccc(O)cc1)C(C)C)NC(=O)c1ccccc1)C(N)=O [NSC_0]
